Organism: Rattus norvegicus
Experiment: Open TG-GATES - Regimen: Single
Assay type: toxicity, organism-based, Sprague-Dawley
Parameters: regimen Single, gender Male, age 6 weeks
Conditions: in vivo, po, 300 mg/kg, route gavage, dose level High; for APTT / Bas / Eos / Fbg / Hb / Ht / Lym / MCH / MCHC / MCV / Mono / Neu / PT / Plat / RBC / Ret / WBC: tissue Blood; for KIDNEY_L / KIDNEY_R / KIDNEY_TOTAL: tissue Kidney; for LIVER: tissue Liver; for A/G / ALP / ALT / AST / BUN / CRE / Ca / Cl / DBIL / GLC / IP / K / LDH / Na / PL / RALB / TBIL / TC / TG / TP / gamma-GTP: tissue Plasma

`CCc1oc2ccccc2c1C(=O)c1cc(I)c(O)c(I)c1` [BENZIODARONE] was tested, and the TERMINAL_BW (3 h) was 211.6 g, the APTT (3 h) was 17 s and the Bas (3 h) was 0%. It also gave an Eos (3 h) of 0.2%, a Fbg (3 h) of 206 mg/dL and a Hb (3 h) of 13 g/dL. It also gave a Ht (3 h) of 39%, a Lym (3 h) of 75.8% and an MCH (3 h) of 21.6 pg. The MCHC (3 h) was 33.3%, the MCV (3 h) was 65 fL and the Mono (3 h) was 7.4%. The Neu (3 h) was 16.4%, the PT (3 h) was 11.9 s and the Plat (3 h) was 107 x10_4/uL. The RBC (3 h) was 600.4 x10_4/ul, the Ret (3 h) was 11.4% and the WBC (3 h) was 93.8 x10_2/uL. For the same molecule, the KIDNEY_L (3 h) was 0.9 g, the KIDNEY_R (3 h) was 1 g and the KIDNEY_TOTAL (3 h) was 1.9 g. The LIVER (3 h) was 10 g, the A/G (3 h) was 2 and the ALP (3 h) was 893 IU/L. For the same molecule, the ALT (3 h) was 37.8 IU/L, the AST (3 h) was 64.6 IU/L and the BUN (3 h) was 16.4 mg/dL. The CRE (3 h) was 0.6 mg/dL, the Ca (3 h) was 10.5 mg/dL and the Cl (3 h) was 102 meq/L. For the same molecule, the DBIL (3 h) was 0.056 mg/dL, the GLC (3 h) was 230.8 mg/dL and the IP (3 h) was 9.7 mg/dL. The K (3 h) was 4.7 meq/L, the LDH (3 h) was 102.8 IU/L and the Na (3 h) was 139 meq/L. It also gave a PL (3 h) of 133.6 mg/dL, an RALB (3 h) of 3.5 g/dL and a TBIL (3 h) of 0.5 mg/dL. It also gave a TC (3 h) of 71.4 mg/dL, a TG (3 h) of 71.4 mg/dL and a TP (3 h) of 5.3 g/dL. For the same molecule, the gamma-GTP (3 h) was 1.2 IU/L, the TERMINAL_BW (6 h) was 214.2 g and the APTT (6 h) was 18.2 s. The Bas (6 h) was 0%, the Eos (6 h) was 1% and the Fbg (6 h) was 205.8 mg/dL. For the same molecule, the Hb (6 h) was 13 g/dL, the Ht (6 h) was 38.8% and the Lym (6 h) was 79%. The MCH (6 h) was 21.9 pg, the MCHC (6 h) was 33.6% and the MCV (6 h) was 65.4 fL. The Mono (6 h) was 3.6%, the Neu (6 h) was 16.8% and the PT (6 h) was 12.2 s. It also gave a Plat (6 h) of 113.1 x10_4/uL, an RBC (6 h) of 593.6 x10_4/ul and a Ret (6 h) of 11.2%. For the same molecule, the WBC (6 h) was 70.8 x10_2/uL, the KIDNEY_L (6 h) was 0.9 g and the KIDNEY_R (6 h) was 1 g. The KIDNEY_TOTAL (6 h) was 1.9 g, the LIVER (6 h) was 9.4 g and the A/G (6 h) was 2.1. The ALP (6 h) was 980.4 IU/L, the ALT (6 h) was 39.6 IU/L and the AST (6 h) was 64.4 IU/L. The BUN (6 h) was 14.6 mg/dL, the CRE (6 h) was 0.6 mg/dL and the Ca (6 h) was 10.4 mg/dL. For the same molecule, the Cl (6 h) was 102.8 meq/L, the DBIL (6 h) was 0.052 mg/dL and the GLC (6 h) was 235.6 mg/dL. For the same molecule, the IP (6 h) was 10.3 mg/dL, the K (6 h) was 4.5 meq/L and the LDH (6 h) was 89 IU/L. The Na (6 h) was 140.2 meq/L, the PL (6 h) was 129.4 mg/dL and the RALB (6 h) was 3.6 g/dL. For the same molecule, the TBIL (6 h) was 0.4 mg/dL, the TC (6 h) was 73.8 mg/dL and the TG (6 h) was 36 mg/dL. The TP (6 h) was 5.2 g/dL, the gamma-GTP (6 h) was 1.4 IU/L and the TERMINAL_BW (9 h) was 215.8 g. It also gave an APTT (9 h) of 18.7 s, a Bas (9 h) of 0% and an Eos (9 h) of 0.6%. The Fbg (9 h) was 208.2 mg/dL, the Hb (9 h) was 13.5 g/dL and the Ht (9 h) was 40.2%. It also gave a Lym (9 h) of 80%, an MCH (9 h) of 22.1 pg and an MCHC (9 h) of 33.6%. For the same molecule, the MCV (9 h) was 65.7 fL, the Mono (9 h) was 6.8% and the Neu (9 h) was 12.8%. The PT (9 h) was 12.2 s, the Plat (9 h) was 114.6 x10_4/uL and the RBC (9 h) was 612 x10_4/ul. The Ret (9 h) was 9.3%, the WBC (9 h) was 88.9 x10_2/uL and the KIDNEY_L (9 h) was 1 g. It also gave a KIDNEY_R (9 h) of 1 g, a KIDNEY_TOTAL (9 h) of 2 g and an LIVER (9 h) of 9 g. For the same molecule, the A/G (9 h) was 2.1, the ALP (9 h) was 976.4 IU/L and the ALT (9 h) was 38.2 IU/L. It also gave an AST (9 h) of 63 IU/L, a BUN (9 h) of 17 mg/dL and a CRE (9 h) of 0.6 mg/dL. It also gave a Ca (9 h) of 10.5 mg/dL, a Cl (9 h) of 103.8 meq/L and a DBIL (9 h) of 0.098 mg/dL. The GLC (9 h) was 214 mg/dL, the IP (9 h) was 10.8 mg/dL and the K (9 h) was 4.7 meq/L. It also gave an LDH (9 h) of 107.6 IU/L, a Na (9 h) of 141.8 meq/L and a PL (9 h) of 139.2 mg/dL. For the same molecule, the RALB (9 h) was 3.7 g/dL, the TBIL (9 h) was 0.2 mg/dL and the TC (9 h) was 75.4 mg/dL. For the same molecule, the TG (9 h) was 77 mg/dL, the TP (9 h) was 5.4 g/dL and the gamma-GTP (9 h) was 1.4 IU/L. For the same molecule, the TERMINAL_BW (24 h) was 220.7 g, the APTT (24 h) was 16.9 s and the Bas (24 h) was 0%. The Eos (24 h) was 0.6%, the Fbg (24 h) was 200.8 mg/dL and the Hb (24 h) was 13.4 g/dL. For the same molecule, the Ht (24 h) was 39.8%, the Lym (24 h) was 81% and the MCH (24 h) was 21.7 pg. It also gave an MCHC (24 h) of 33.8%, an MCV (24 h) of 64.4 fL and a Mono (24 h) of 6%. The Neu (24 h) was 12.6%, the PT (24 h) was 12.1 s and the Plat (24 h) was 120.3 x10_4/uL. For the same molecule, the RBC (24 h) was 618.2 x10_4/ul, the Ret (24 h) was 9.6% and the WBC (24 h) was 106.3 x10_2/uL. The KIDNEY_L (24 h) was 1 g, the KIDNEY_R (24 h) was 1 g and the KIDNEY_TOTAL (24 h) was 2 g. The LIVER (24 h) was 11.9 g, the A/G (24 h) was 2.2 and the ALP (24 h) was 1044.4 IU/L. The ALT (24 h) was 36.2 IU/L, the AST (24 h) was 67.2 IU/L and the BUN (24 h) was 17.8 mg/dL. For the same molecule, the CRE (24 h) was 0.6 mg/dL, the Ca (24 h) was 10.7 mg/dL and the Cl (24 h) was 104 meq/L. For the same molecule, the DBIL (24 h) was 0.008 mg/dL, the GLC (24 h) was 184.8 mg/dL and the IP (24 h) was 8.3 mg/dL. It also gave a K (24 h) of 4.6 meq/L, an LDH (24 h) of 89.2 IU/L and a Na (24 h) of 141.2 meq/L. The PL (24 h) was 120.2 mg/dL, the RALB (24 h) was 3.9 g/dL and the TBIL (24 h) was 0.3 mg/dL. The TC (24 h) was 66.6 mg/dL, the TG (24 h) was 72 mg/dL and the TP (24 h) was 5.7 g/dL. The gamma-GTP (24 h) was 1.4 IU/L.

From ChEMBL document CHEMBL3885861, “Open TG-GATES”
